# Patent US20050009903A1, “CB2-selective cannabinoid analogues” (priority 2003, published 2005)
# “And” between values parts separate entries of the source, which are not always exact repeats. Equal entries are not always repeated. Where two headings read alike, the source gives them in different places.
# What was measured:
# CB1 receptor [1] = molecular target: T1, CB1 receptor (Rattus norvegicus, UniProt P20272); assay: CB1 assay: displacement of [3H]CP-55,940 from rat brain membrane preparation; assay type: binding
# T1 construct: from tissue; host or cells: rat whole brain, P2 membranes
# T1 sequence (P20272 whole entry): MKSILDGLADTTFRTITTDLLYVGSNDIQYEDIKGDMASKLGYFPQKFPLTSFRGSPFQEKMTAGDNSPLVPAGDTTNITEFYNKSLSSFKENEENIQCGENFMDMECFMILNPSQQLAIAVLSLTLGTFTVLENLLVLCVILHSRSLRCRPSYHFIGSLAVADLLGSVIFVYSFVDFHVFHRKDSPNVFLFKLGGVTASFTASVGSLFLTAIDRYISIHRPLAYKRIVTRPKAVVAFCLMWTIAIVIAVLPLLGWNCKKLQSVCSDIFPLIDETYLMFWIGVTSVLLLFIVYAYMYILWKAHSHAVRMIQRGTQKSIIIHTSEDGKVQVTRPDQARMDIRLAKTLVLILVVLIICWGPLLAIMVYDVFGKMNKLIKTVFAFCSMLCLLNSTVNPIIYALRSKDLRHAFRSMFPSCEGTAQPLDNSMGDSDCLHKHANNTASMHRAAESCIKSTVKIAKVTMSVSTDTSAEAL
# CB2 receptor [2] = molecular target: T2, CB2 receptor (Homo sapiens, UniProt P34972); assay: CB2 assay: displacement of [3H]CP-55,940 from cloned human CB2 receptor preparation (transfected HEK 293 cells); assay type: binding; set-up: expressed in transfected cells; conditions: for Ratio CB17CB2 / Ratio CB1/CB2: ratio of Ki values; for selectivity for the CB2 receptor: CB2 over CB1 affinity
# T2 sequence (P34972 whole entry): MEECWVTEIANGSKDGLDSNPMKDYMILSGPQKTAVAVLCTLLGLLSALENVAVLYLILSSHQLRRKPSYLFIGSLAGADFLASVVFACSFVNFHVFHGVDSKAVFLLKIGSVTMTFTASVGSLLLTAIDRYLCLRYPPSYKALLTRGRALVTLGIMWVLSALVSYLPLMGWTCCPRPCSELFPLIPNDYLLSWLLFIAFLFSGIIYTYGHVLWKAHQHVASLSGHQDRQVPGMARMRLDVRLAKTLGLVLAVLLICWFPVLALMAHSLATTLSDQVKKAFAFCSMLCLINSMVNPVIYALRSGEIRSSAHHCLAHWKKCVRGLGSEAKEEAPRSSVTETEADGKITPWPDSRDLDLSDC
# CB2 receptor [3] = molecular target: T2, CB2 receptor; set-up: expressed in transfected cells; conditions: cited from earlier work
# CB1 receptor [4] = molecular target: T1, CB1 receptor; conditions: cited from earlier work
# CB1 receptor [5] = molecular target: CB1 receptor (Homo sapiens, UniProt P21554); conditions: Gareau et al.; cited from earlier work
# Sequence of CB1 receptor (Homo sapiens, UniProt P21554) (P21554 whole entry): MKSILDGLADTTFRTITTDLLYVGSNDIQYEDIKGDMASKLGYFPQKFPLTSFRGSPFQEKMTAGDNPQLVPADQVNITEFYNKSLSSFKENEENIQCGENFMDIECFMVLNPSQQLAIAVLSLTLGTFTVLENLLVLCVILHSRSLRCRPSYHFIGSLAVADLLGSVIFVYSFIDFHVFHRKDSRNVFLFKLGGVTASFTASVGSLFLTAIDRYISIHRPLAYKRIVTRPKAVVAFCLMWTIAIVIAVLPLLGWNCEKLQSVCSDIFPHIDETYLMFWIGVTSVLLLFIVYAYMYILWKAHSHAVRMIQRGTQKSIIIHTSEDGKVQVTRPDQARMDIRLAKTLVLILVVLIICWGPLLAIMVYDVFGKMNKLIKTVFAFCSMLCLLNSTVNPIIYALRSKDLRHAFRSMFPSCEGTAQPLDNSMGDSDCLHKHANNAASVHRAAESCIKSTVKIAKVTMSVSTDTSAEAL
# CB2 receptor [6] = molecular target: T2, CB2 receptor
# CB2 receptor [7] = molecular target: T2, CB2 receptor; assay: [35S]GTPγS binding in human CB2 receptor-expressing CHO cell membranes; assay type: biochemical; set-up: expressed in transfected cells; conditions: for efficacy in the [35S]GTPγS assay relative to CP-55,940: in words
# [8] = Table 3, mean ± SEM, 3-(alkoxy-1-naphthoyl)indoles, the same values as Ki in nM, read-out: CB1 (receptor affinity)
# [9] = cloned human CB2, read-out: Ki at CB2 receptor
# [10] = Table 1, mean ± SEM, values marked ref 8, 19 or 20, read-out: Ki CB1
# [11] = previously reported by the applicants (literature refs), read-out: Ki at CB1 receptor
# [12] = previously reported by the applicants (literature refs), read-out: Ki at CB2 receptor
# [13] = Ki at CB2 receptor, cloned human CB2
# [14] = rat brain membranes, read-out: Ki at CB1 receptor
# [15] = read-out: Emax relative to CP-55,940
# [16] = Table 3, mean ± SEM, 3-(alkoxy-1-naphthoyl)indoles, the same values as Ki in nM, read-out: CB2 (receptor affinity)
# [17] = read-out: CB1 (receptor affinity), Table 3, mean ± SEM, 3-(alkoxy-1-naphthoyl)indoles, the same values as Ki in nM
# [18] = Table 2, mean ± SEM, 3-(alkyl-1-naphthoyl)indoles, read-out: Ki CB1
# [19] = Table 2, mean ± SEM, 3-(alkyl-1-naphthoyl)indoles, read-out: Ki CB2
# [20] = Ki CB2, Table 1, mean ± SEM, cloned human CB2, [3H]CP 55,940
molecule,measurement,setting,value
"CCCn1cc(C(=O)c2c(OC)ccc3ccccc23)c2ccccc21 [JWH-265, 1-Propyl-3-(2-methoxy-1-naphthoyl)indole]",Ki,CB1 receptor [1]; [8],3790 ± 323 nM
same,melting point,,117 to 119 °C
same,Ki,CB2 receptor [2]; [9],80 ± 13 nM
"CCCCCn1c(C)c(C(=O)c2cccc3ccccc23)c2ccccc21 [JWH-007, 1-pentyl-2-methyl-3-(1-naphthoyl)indole]",Ratio CB17CB2,CB2 receptor [2]; Table 2,3.3
same,Ki,"CB2 receptor [3]; read-out: Ki CB2, Table 2, mean ± SEM, values marked with literature refs",2 ± 2.6 nM
"CCCCCCC(C)(C)c1ccc2c(c1)OC(C)(C)C1CC=C(C)CC21 (centres unmarked) [Compound 2, 1-Deoxy-3-(1′,1′-dimethylheptyl)-Δ^8-THC]",Ki,CB1 receptor [4]; [10],22.8 ± 7.3 nM
same,Ki,CB1 receptor [4]; [11],23 nM
same,Ratio CB1/CB2,CB2 receptor [2]; Table 1,7.9
same,Ki,CB2 receptor [3]; [12],2.9 nM
"CCCCCCC(C)(C)c1cc(OC)c2c(c1)OC(C)(C)[C@@H]1CC=C(C)C[C@@H]21 [Compound 4, 3-(1′,1′-Dimethylheptyl)-1-methoxy-Δ^8-THC, reference compound]",Ki,CB1 receptor [1],713 nM
same,Ki,"CB1 receptor [4]; read-out: Ki at CB1 receptor, previously reported by the applicants (literature refs)",924 ± 104 nM
same,Ki at CB1,CB1 receptor [5],virtually no affinity
same,Ki,CB2 receptor [6]; read-out: Ki at CB2; Gareau et al.; cited from earlier work,~20 nM
same,Ki,CB2 receptor [2]; [13],57 nM
same,Ratio CB1/CB2,CB2 receptor [2]; Table 1,12 and 14
same,Ki,"CB2 receptor [3]; read-out: Ki at CB2 receptor, previously reported by the applicants (literature refs)",65 ± 8 nM
"CCCn1cc(C(=O)c2ccc(C)c3ccccc23)c2ccccc21 [JWH-120, 1-Propyl-3-(4-methyl-1-naphthoyl)indole]",Ki,CB1 receptor [1]; [14],1050 ± 31 nM
same,selectivity for the CB2 receptor,CB2 receptor [2],173 fold
same,Ratio CB17CB2,CB2 receptor [2]; Table 2,173
same,Ki,CB2 receptor [2]; [9],6.1 ± 7 nM
same,EC50,CB2 receptor [7],5.1 ± 1.6 nM
same,"efficacy in the [35S]GTPγS assay relative to CP-55,940",CB2 receptor [7],partial agonists
same,Emax,CB2 receptor [7]; read-out: Emax (% CP-55940),78.1 ± 10.7%
same,Emax,CB2 receptor [7]; [15],78.1 ± 10.7%
"C=C1CCC2C(C1)c1c(OC)cc(C(C)(C)CCCCCC)cc1OC2(C)C (centres unmarked) [Compound 5, 1-methoxy-66 ^9(11)-THC-DMH]",Ki at CB1,CB1 receptor [5],virtually no affinity
same,Ki,CB2 receptor [6]; Gareau et al.; read-out: Ki at CB2; cited from earlier work,~20 nM
"CCCCCC(C)(C)c1cc(OC)c2c(c1)OC(C)(C)C1CC=C(CO)CC21 (centres unmarked) [Compound 11e, 1-Methoxy-3-(1′,1′-dimethylhexyl)-11-hydroxy-Δ^8-THC]",Ki,CB1 receptor [1]; [14],15 nM and 14 nM
same,Ratio CB1/CB2,CB2 receptor [2]; Table 1,11
same,Ki,CB2 receptor [2]; [9],1.4 nM and 1.2 nM
"CCCn1c(C)c(C(=O)c2cccc3ccc(OC)cc23)c2ccccc21 [JWH-160, 2-Methyl-1-propyl-3-(7-methoxy-1-naphthoyl)indole]",Ki,CB1 receptor [1]; [14],1570 ± 201 nM
same,Ki,CB2 receptor [2]; [16],441 ± 110 nM
"CCCCCn1c(C)c(C(=O)c2ccc(CCCC)c3ccccc23)c2ccccc21 [JWH-242, 2-Methyl-1-pentyl-3-(4-butyl-1-naphthoyl)indole]",Ki,CB1 receptor [1]; [14],42 ± 9 nM
same,Ratio CB17CB2,CB2 receptor [2]; Table 2,6.5
same,Ki,CB2 receptor [2]; [9],6.5 ± 0.3 nM
"CCC(C)(C)c1cc(OC)c2c(c1)OC(C)(C)C1CC=C(C)CC21 (centres unmarked) [Compound 6b, 1-Methoxy-3-(1′,1′-dimethylpropyl)-Δ^8-THC]",Ki,"CB1 receptor [1]; Table 1, mean ± SEM, rat brain membranes, [3H]CP 55,940, read-out: Ki CB1",> 10000 nM
same,Ki,"CB2 receptor [2]; Table 1, mean ± SEM, cloned human CB2, [3H]CP 55,940, read-out: Ki CB2",1400 ± 66 nM
same,Ratio CB1/CB2,CB2 receptor [2]; Table 1,7.1
"CCCn1c(C)c(C(=O)c2cccc3cc(OC)ccc23)c2ccccc21 [JWH-151, 2-Methyl-1-propyl-3-(6-methoxy-1-naphthoyl)indole]",Ki,CB1 receptor [1],> 10000 nM
same,Ki,CB1 receptor [1]; [17],> 10000 nM
same,selectivity for the CB2 receptor,CB2 receptor [2],> 333 fold
same,Ki,CB2 receptor [2]; [9],30 ± 1 nM
same,EC50,CB2 receptor [7],12 ± 2.9 nM
same,"efficacy in the [35S]GTPγS assay relative to CP-55,940",CB2 receptor [7],highly efficacious
same,Emax,CB2 receptor [7]; read-out: Emax (% CP-55940),108 ± 13%
same,Emax,CB2 receptor [7]; [15],108 ± 13%
"CCCn1cc(C(=O)c2cccc3ccc(CC)cc23)c2ccccc21 [JWH-235, 1-Propyl-3-(7-ethyl-1-naphthoyl)indole]",Ki,CB1 receptor [1]; [14],338 ± 34 nM
same,Ratio CB17CB2,CB2 receptor [2]; Table 2,2.7
same,Ki,CB2 receptor [2]; [9],123 ± 34 nM
"CCCCCn1c(C)c(C(=O)c2cccc3ccc(CC)cc23)c2ccccc21 [JWH-262, 2-Methyl-1-pentyl-3-(7-ethyl-1-naphthoyl)indole]",Ki,CB1 receptor [1]; [18],28 ± 3 nM
same,Ki,CB2 receptor [2]; [19],5.6 ± 0.7 nM
same,Ratio CB17CB2,CB2 receptor [2]; Table 2,5.0
"CCCCCn1cc(C(=O)c2ccc(OCC)c3ccccc23)c2ccccc21 [JWH-258, 1-Pentyl-3-(4-ethoxy-1-naphthoyl)indole]",Ki,CB1 receptor [1]; [14],4.6 ± 0.6 nM
same,Ki,CB2 receptor [2]; [9],10.5 ± 1.3 nM
"CCCCCn1cc(C(=O)c2c(OC)ccc3ccccc23)c2ccccc21 [JWH-267, 1-Pentyl-3-(2-methoxy-1-naphthoyl)indole]",Ki,CB1 receptor [1]; [14],381 ± 16 nM
same,selectivity for the CB2 receptor,CB2 receptor [2],53 fold
same,Ki,CB2 receptor [2]; [13],7.35 nM
same,Ki,CB2 receptor [2]; [16],7.2 ± 0.14 nM
same,EC50,CB2 receptor [7],4.9 ± 0.8 nM
same,"efficacy in the [35S]GTPγS assay relative to CP-55,940",CB2 receptor [7],partial agonists
same,Emax,CB2 receptor [7]; read-out: Emax (% CP-55940),67.3 ± 2.9%
"CCCCC(C)(C)c1cc(OC)c2c(c1)OC(C)(C)[C@@H]1CC=C(C)C[C@@H]21 [Compound 6d, 1-Methoxy-3-(1′,1′-dimethylpentyl)-Δ^8-THC]",Ki,CB1 receptor [1],4000 ± 282 nM
same,Ki,CB2 receptor [2]; [20],43 ± 3 nM
same,Ratio CB1/CB2,CB2 receptor [2]; Table 1,93
"CCCCCn1cc(C(=O)c2ccc(CC)c3ccccc23)c2ccccc21 [JWH-210, 1-Pentyl-3-(4-ethyl-1-naphthoyl)indole]",Ki,CB1 receptor [1]; [14],0.46 ± 0.03 nM
same,Ki,CB2 receptor [2]; [19],0.69 ± 0.01 nM
same,Ratio CB17CB2,CB2 receptor [2]; Table 2,0.67
"1-Methoxy-3-(1′,1′-dimethylhexyl)-Δ^8-THC [Compound 6e]",EC50,"CB2 receptor [7]; Table 4, mean ± SEM, human CB2 CHO cells, read-out: EC50 GTPγS binding",4.6 ± 2 nM
same,Emax (% CP-55940),"CB2 receptor [7]; Table 4, mean ± SEM, per cent relative to 3 μM CP-55,940",75.7 ± 8.3 % CP-55940
"CCCn1c(C)c(C(=O)c2ccc(OCC)c3ccccc23)c2ccccc21 [JWH-261, 2-Methyl-1-propyl-3-(4-ethoxy-1-naphthoyl)indole]",Ki,CB1 receptor [1]; [14],767 ± 105 nM
same,Ki,CB2 receptor [2]; [9],221 ± 14 nM
"CCCCCn1c(C)c(C(=O)c2c(OC)ccc3ccccc23)c2ccccc21 [JWH-268, 2-Methyl-1-pentyl-3-(2-methoxy-1-naphthoyl)indole]",Ki,CB1 receptor [1]; [8],1380 ± 193 nM
same,Ki,CB2 receptor [2]; [9],40 ± 1 nM
"CCCn1cc(C(=O)c2cccc3ccc(C)cc23)c2ccccc21 [JWH-076, 1-Propyl-3-(7-methyl-1-naphthoyl)indole]",Ki,CB1 receptor [1]; [14],214 ± 11 nM
same,Ratio CB17CB2,CB2 receptor [2]; Table 2,2.0
same,Ki,CB2 receptor [2]; [9],106 ± 46 nM
"CCCC(C)(C)c1cc(OC)c2c(c1)OC(C)(C)[C@@H]1CC=C(C)C[C@@H]21 [Compound 6c, 3-(1′,1′-Dimethylbutyl)-1-methoxy-Δ^8-THC]",Ki,CB1 receptor [1],> 10000 nM
same,Ki,CB2 receptor [2]; [20],325 ± 70 nM
same,Ki,CB2 receptor [2]; [13],1870 ± 867 nM
same,Ratio CB1/CB2,CB2 receptor [2]; Table 1,31
"CCCn1c(C)c(C(=O)c2c(OC)ccc3ccccc23)c2ccccc21 [JWH-266, 2-Methyl-1-propyl-3-(2-methoxy-1-naphthoyl)indole]",Ki,CB1 receptor [1],> 10000 nM
same,Ki,CB1 receptor [1]; [17],> 10000 nM
same,Ki,CB2 receptor [2]; [13],455 ± 55 nM
"CCCCCCC(C)(C)c1cc(OC)c2c(c1)OC(C)(C)[C@@H]1CC=C(CO)C[C@@H]21 [Compound 11f, 11-hydroxy-3-(1′,1′-dimethylheptyl)-1-methoxy-Δ^8-THC]",Ki,CB1 receptor [1],14 ± 3 nM
same,Ki,CB2 receptor [2]; [13],1 nM and 1.2 nM
same,Ratio CB1/CB2,CB2 receptor [2]; Table 1,14
"CCCCCCC(C)(C)c1ccc2c(c1)OC(C)(C)C1CC=C(CO)CC21 (centres unmarked) [Compound 1, 1-Deoxy-11-hydroxy-3-(1′,1′-dimethylheptyl)-Δ^8-THC]",Ki,CB1 receptor [4]; [10],1.2 ± 0.1 nM
same,Ki,CB1 receptor [4]; [11],1.2 nM
same,Ratio CB1/CB2,CB2 receptor [2]; Table 1,40
same,Ki,"CB2 receptor [3]; Table 1, mean ± SEM, values marked ref 30, 19 or 20, read-out: Ki CB2",0.03 ± 0.02 nM
same,Ki,CB2 receptor [3]; [12],0.032 nM
"CCCC(C)(C)c1ccc2c(c1)OC(C)(C)[C@@H]1CC=C(CO)C[C@@H]21 [Compound 9c, 1-Deoxy-3-(1′,1′-dimethylbutyl)-11-hydroxy-Δ^8-THC]",Ki,CB1 receptor [1],84 ± 16 nM
same,Ki,CB2 receptor [2]; [20],3.4 ± 0.5 nM
same,Ratio CB1/CB2,CB2 receptor [2]; Table 1,25
"CCCCCC(C)(C)c1ccc2c(c1)OC(C)(C)C1CC=C(CO)CC21 (centres unmarked) [Compound 9e, 1-Deoxy-3-(1′,1′-dimethylhexyl)-11-hydroxy-Δ^8-THC]",Ki,CB1 receptor [1]; [14],1.8 ± 0.3 nM
same,Ratio CB1/CB2,CB2 receptor [2]; Table 1,3.5
same,Ki,CB2 receptor [2]; [9],0.52 nM
"CCCc1ccc(C(=O)c2cn(CCC)c3ccccc23)c2ccccc12 [JWH-180, 1-Propyl-3-(4-propyl-1-naphthoyl)indole]",Ki,CB1 receptor [1]; [18],26 ± 2 nM
same,Ki,CB2 receptor [2]; [19],9.6 ± 2 nM
same,Ratio CB17CB2,CB2 receptor [2]; Table 2,2.7
"CCCn1c(C)c(C(=O)c2cccc3ccccc23)c2ccccc21 [JWH-015, 2-Methyl-1-propyl-3-(1-naphthoyl)indole]",Emax,CB2 receptor [7]; read-out: Emax (% CP-55940),65.7 ± 6.4%
same,Emax,CB2 receptor [7]; [15],65.7 ± 6.4%
